Tests used:
C. elegans = C. elegans nematode activity assay, 2-fold dilutions from 140 μM, visual evaluation at Day 4 (Example 3); format: in vivo, Caenorhabditis elegans
Method: The eggs were allowed to hatch, and the L1 larvae collected. See The Nematode Caenorhabditis elegans (1988) Cold Spring Harbor Laboratory Press. Using a Matrix Programmable Pipette, the L1s were distributed into 96-well tissue culture plates, 20 L1 in 50 μl NGM per well. Antibiotic/Antimyoticwas added to each well, and 1% by weight E. coli strain HB101. The subject anthelmintic compounds were stored at 5 mM in 100% DMSO. 0.7 μl of compounds 1-31 were added to the left-most column of wells to yield a final concentration of 70 μM in 1.4% DMSO, with 1.4% DMSO only as the control. The compounds were then subjected to 5 more 3-fold dilutions from left to right to yield 6 column concentrations of 70 μM, 23.3 μM, 7.8 μM, 2.6 μM, 0.9 μM, and 0.3 μM. Plates were stored in air-tight Rubbermaid plastic boxes at 20° C. The nematodes had cleared all control wells by day 4, and nematode viability was scored by visual examination under a 100× dissecting microsope on day 5. A visual viability scoring system was used as follows:
The C. elegans nematode activity assay for anthelmintic compounds 32-46 was similar to that described in Example 2 above, except for the following noted differences. The compound concentrations were adjusted to 140 μM and subjected to 2-fold dilutions to yield 140 μM, 70 μM, 35 μM, 17.5 μM, 8.8 μM, 4.4 μM, 2.2 μM, and 1.09 μM.

Meloidogyne incognita = conditions: cited from earlier work
Caenorhabditis elegans = assay: C. elegans L1 nematicidal dose response in 96-well plates, 5 day visual score (Example 2; same procedure for Example 7, Table 3); format: in vivo; design: key to 5 Day Visual Score V1 / 5 Day Visual Score V2 / 5 Day Visual Score V3 / 5 Day Visual Score V4 / 5 Day Visual Score V6 / 5 Day Visual Score V5 / Initial HTS Run Visual Score / Follow-up HTS Run Visual Score: Dead: only stiff L1s (no movement); Dead (L4): worms are dead, but at a later larval stage; majority of worms are L1 (based on size) worms move when plate is tapped; majority of worms are L2 (based on size); majority of worms are L3 (based on size); majority of worms are L4 (based on size); AD: majority of worms are adult; #AD: 5 adult worms or less; B!: sterile (0-25 progeny); B: low broodsize (25-100 progeny); ˜B: moderate broodsize (100-250 progeny); <: reduced broodsize (250-500 progeny); OK: no effect (˜1000+ progeny); conditions: for 5 Day Visual Score V1 / 5 Day Visual Score V2 / 5 Day Visual Score V4 / 5 Day Visual Score V5 / 5 Day Visual Score V6 / 5 Day Visual Score V3: dose response; for 5 Day Visual Score V1: dilution V1, 5 day; for 5 Day Visual Score V2: dilution V2, 5 day; for 5 Day Visual Score V4: dilution V4, 5 day; for 5 Day Visual Score V5: dilution V5, 5 day; for 5 Day Visual Score V6: dilution V6, 5 day; for 5 Day Visual Score V3: dilution V3, 5 day
Outline: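 L1 larvae, 20 per well in NGM with 1% E. coli HB101 and antibiotic/antimycotic, exposed to six 3-fold dilutions from 70 μM down to 0.3 μM (1.4% DMSO at top). Held at 20° C; viability scored visually under 100× dissecting microscope on day 5.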

Row | SMILES | visual evaluation of viability (C. elegans; 8.8 μM) | visual evaluation of viability (C. elegans; 1.09 μM) | visual evaluation of viability (C. elegans; 2.2 μM) | visual evaluation of viability (C. elegans; 4.4 μM) | visual evaluation of viability (C. elegans; 17.5 μM) | visual evaluation of viability (C. elegans; 35 μM) | visual evaluation of viability (C. elegans; 70 μM) | activity against the root-knot nematode (Meloidogyne incognita) | Follow-up HTS Run % Run (Caenorhabditis elegans) | Follow-up HTS Run Visual Score (Caenorhabditis elegans) | Follow-up HTS Run mOD (Caenorhabditis elegans) | Initial HTS Run % Run (Caenorhabditis elegans) | Initial HTS Run Visual Score (Caenorhabditis elegans) | Initial HTS Run mOD (Caenorhabditis elegans) | 5 Day Visual Score V1 (Caenorhabditis elegans) | 5 Day Visual Score V2 (Caenorhabditis elegans) | 5 Day Visual Score V4 (Caenorhabditis elegans) | 5 Day Visual Score V5 (Caenorhabditis elegans) | 5 Day Visual Score V6 (Caenorhabditis elegans) | 5 Day Visual Score V3 (Caenorhabditis elegans)
1 | NCc1ccc(-c2ccccc2)cc1 [AKC-138] | B (low broodsize (25-100 progeny)) | – | – | – | – | – | – | – | – | – | – | – | – | – | – | – | – | – | – | –
2 | CCCCCCCCOc1ccc2nc(CCSC)[nH]c2c1 [AKC-144] | OK (no effect (˜1000+ progeny)) | OK (no effect (˜1000+ progeny)) | OK (no effect (˜1000+ progeny)) | OK (no effect (˜1000+ progeny)) | ˜B (moderate broodsize (100-250 progeny)) | B (low broodsize (25-100 progeny)) | L4/AD/B | – | – | – | – | – | – | – | – | – | – | – | – | –
3 | CC[C@H](C)[C@H]1O[C@]2(CC(O)[C@@H]1C)C[C@@H]1C[C@@H](C/C=C(\C)[C@@H](OC3CC(OC)C(OC4CC(OC)C(O)C(C)O4)C(C)O3)[C@@H](C)/C=C/C=C3\CO[C@@H]4[C@H](O)C(C)=C[C@@H](C(=O)O1)[C@]34O)O2 (some centres unmarked) [Avermectin B2a] | – | – | – | – | – | – | – | active | – | – | – | – | – | – | – | – | – | – | – | –
4 | CCCCCCCCCCCCCCCCCCN(C)c1nc(NC2CCCCCCCCCCC2)ns1 [compound 330] | – | – | – | – | – | – | – | – | 56% | Dead | 90 mOD | 107% | Dead (L2/L3) | 118 mOD | Dead | Dead | OK (no effect (˜1000+ progeny)) | OK (no effect (˜1000+ progeny)) | OK (no effect (˜1000+ progeny)) | –
5 | CCCCC(CC)CN(CC(CC)CCCC)c1nc(NC2CCCCCCCCCCC2)ns1 (centres unmarked) [compound 331] | – | – | – | – | – | – | – | – | 85% | Dead | 137 mOD | 95% | Dead | 104 mOD | Dead | Dead | OK (no effect (˜1000+ progeny)) | OK (no effect (˜1000+ progeny)) | OK (no effect (˜1000+ progeny)) | Dead
6 | CCCCN(CC)c1nc(NC2CCCCCCCCCCC2)ns1 [compound 332] | – | – | – | – | – | – | – | – | 75% | Dead | 121 mOD | 92% | Dead | 101 mOD | Dead | Dead | OK (no effect (˜1000+ progeny)) | OK (no effect (˜1000+ progeny)) | OK (no effect (˜1000+ progeny)) | L1
7 | CCCCN(Cc1ccccc1)c1nc(NC2CCCCCCCCCCC2)ns1 [compound 333] | – | – | – | – | – | – | – | – | 76% | Dead | 123 mOD | 93% | Dead | 102 mOD | Dead | Dead | OK (no effect (˜1000+ progeny)) | OK (no effect (˜1000+ progeny)) | OK (no effect (˜1000+ progeny)) | Dead
8 | C=CCN(CC=C)c1nc(NC2CCCCCCCCCCC2)ns1 [compound 334] | – | – | – | – | – | – | – | – | 88% | – | 141 mOD | 98% | Dead | 108 mOD | Dead | Dead | OK (no effect (˜1000+ progeny)) | OK (no effect (˜1000+ progeny)) | OK (no effect (˜1000+ progeny)) | –
9 | CN(CCc1ccccc1)c1nc(NC2CCCCCCCCCCC2)ns1 [compound 335] | – | – | – | – | – | – | – | – | 86% | Dead | 139 mOD | 97% | Dead | 107 mOD | Dead | – | – | – | < (reduced broodsize (250-500 progeny)) | –
10 | CN(Cc1ccccc1)c1nc(NC2CCCCCCCCCCC2)ns1 [compound 336] | – | – | – | – | – | – | – | – | 90% | – | 145 mOD | 97% | Dead/1AD/B! | 107 mOD | Dead | Dead | OK (no effect (˜1000+ progeny)) | OK (no effect (˜1000+ progeny)) | OK (no effect (˜1000+ progeny)) | –
11 | COc1ccc(CCN(C)c2nc(NC3CCCCCCCCCCC3)ns2)cc1OC [compound 337] | – | – | – | – | – | – | – | – | 68% | Dead | 110 mOD | 90% | Dead | 99 mOD | Dead | Dead | B (low broodsize (25-100 progeny)) | OK (no effect (˜1000+ progeny)) | OK (no effect (˜1000+ progeny)) | Dead
12 | FC(F)(F)c1cccc(N2CCN(c3nc(Cl)ns3)CC2)c1 [compound 338] | – | – | – | – | – | – | – | – | 116% | B (low broodsize (25-100 progeny)) | 186 mOD | 94% | 3AD/B | 103 mOD | Dead | – | OK (no effect (˜1000+ progeny)) | OK (no effect (˜1000+ progeny)) | < (reduced broodsize (250-500 progeny)) | < (reduced broodsize (250-500 progeny))
